Results from US6432413B1, “Functional improvements in Fahr disease” (Wayne State University, priority 1998, dated 2002).

Key:
Format in all cases: in vivo, human
[1] = system: patient with Fahr disease; test: Previous drug treatments of the same Fahr disease patient; details: before the study
Text: Prior to initiating and throughout the study, they were maintained on the same doses of baclofen, pergolide, lorazepam, naproxen, diltiazem, probanthiline bromide, and hyoscyamine sulfate. They were placed on isosorbide dinitrate 2 months into the study for ischemic heart disease.

[2] = system: patient with familial, idiopathic cerebral calcinosis of the basal ganglia (Fahr disease); test: Treatment of a patient with Fahr disease: serial neurologic examinations, timed speech and gait, Blessed Dementia Scale
Text: FIG. 2 is a series of graphs showing the effect of treatment on speech and gait. Timed measurements of speech (counting from 1-20 or 20-1) and gait (walking 15 feet and back) were made during two treatment cycles with disodium etidronate. The start and stop times indicate the times at which the medication was begun and discontinued, respectively. Each zero time point for counting 1-20 and walking 15 feet and back represents an average of 2 separate measurements, taken 2 weeks apart.
The patient is a person with hypertension and osteoarthritis who presented with transient right hemiparesis and dysarthria. […] Their major neurologic disabilities prior to treatment were slowness of gait and speech, rigidity, spasticity, cerebellar ataxia, dystonia, and dysphagia. They scored 6 points out of a possible 37 points on the right side of the Blessed Dementia Scale, which measures memory and concentration (6). A score of 0 points is without error. They had been having frequent emotional outbursts and inappropriate hypersexuality.
(§1) After obtaining baseline measurements and informed consent, the patient was begun on 15 mg/kg of disodium etidronate given once daily for two 6 month periods, separated by a 6 month period off of the drug, which was carried out as an internal control and to allow for normal bone mineralization. Serial neurologic examinations were performed by the same physician, and included three quantitative measurements: counting from 1-20, counting from 20-1, and walking 15 feet and back. Instructions were given with the same amount of encouragement for each of the serial measurements. Duplicate measures of counting 1-20 and walking taken two weeks apart were averaged to produce baseline values. There was little variation between the duplicate measures. Baseline and follow-up videotapes of the neurologic exam and CAT scans, to quantify the amount of cerebral calcification, were obtained in a uniform manner.

cerebral calcification = test: Quantitation of cerebral calcification by serial CAT scans
Text: FIG. 1 is a series of axial CAT scans and 3-dimensional reconstructions of basal ganglia calcification. Panels A-D show the extent of cerebral calcification on axial CAT scan images showing involvement of the basal ganglia, thalamus, and cerebellum. Panels E-H are 3-dimensional reconstructions of the basal ganglia, thalami, and pineal gland in different projections. The patient is directly facing the viewer in Panel E, turning to the left by 30 degrees in Panel F, and by 60 degrees in Panel G. Panel H is a projection looking from above and behind the patient, in the same orientation as the CAT scans described above. […]
FIG. 3 is a graph showing quantitation of cerebral calcification. […]
Quantitative measurements of cerebral calcification were obtained using contiguous regions of calcification, defined as those containing pixels greater than 50 Hounsfield units, on each 3 mm coronal image. […]
After obtaining baseline measurements and informed consent, the patient was begun on 15 mg/kg of disodium etidronate given once daily for two 6 month periods, separated by a 6 month period off of the drug, which was carried out as an internal control and to allow for normal bone mineralization. Serial neurologic examinations were performed by the same physician, and included three quantitative measurements: counting from 1-20, counting from 20-1, and walking 15 feet and back. […]

[3] = Side effects during treatment of the Fahr disease patient; details: 15 mg/kg once daily
Description: as §1
For example, they could button their shirts, which they could not do previously.

[4] = second six month course of treatment

Compound: CCCN1C[C@H](CSC)C[C@@H]2c3cccc4[nH]cc(c34)C[C@H]21 [pergolide]
- improvement with previous drug treatment [1]: minimal improvement

Compound: NCC(CC(=O)O)c1ccc(Cl)cc1 (centres unmarked) [baclofen]
- improvement with previous drug treatment [1]: minimal improvement

Compound: carbidopa-levodopa
- improvement with previous drug treatment [1]: minimal improvement

Compound: O=C1Nc2ccc(Cl)cc2C(c2ccccc2Cl)=NC1O (centres unmarked) [lorazepam]
- improvement with previous drug treatment [1]: minimal improvement

Compound: CC(O)(P(=O)(O)O)P(=O)(O)O [disodium etidronate]
- gait and speech after stopping the medication ([2]; 6 month period off of the drug): significant deterioration in their gait, but little loss in the gains made with their speech
- speech, attention span, emotional outbursts and inappropriate sexual behavior as felt by the patient's family ([2]; after one month on 15 mg/kg once daily): their speech had become clearer, their attention span improved, and their emotional outbursts and inappropriate sexual behavior ceased
- bradykinesia and emotional lability ([2]; after treatment): clearly improved
- spasticity, cerebellar ataxia, and dystonia ([2]; after treatment): unchanged
- Blessed Dementia Scale score ([2]; eighteen months after beginning treatment, previous score 6, 0 points is without error): 2
- gait and fine motor skills ([2]; first treatment period, 15 mg/kg once daily): His gait also improved, together with fine motor skills
- increase in the speed of speech and gait (counting 1-20, 20-1, walking 15 feet and back) ([2]; over the first six months of treatment): two-fold increase
- counting from 1-20 [2, 4]: improvement
- counting from 20-1 [2, 4]: some deterioration
- gait [2, 4]: again improved
- speech [2, 4]: did not change appreciably
- other measurements of the speed of motor movement (rapid finger tapping and knee patting) ([2]; videotape before medication vs end of first six month treatment): improved considerably
- speech (rate and clarity) ([2]; within four months of treatment, 15 mg/kg once daily): their speech became more rapid and clear
- shape and size of the cerebral calcification, qualitative comparison of CAT scans and 3-dimensional reconstructions (cerebral calcification; after treatment): did not demonstrate any change
- brain calcium content, quantitative measurements from serial CAT scans (density x area) (cerebral calcification; before treatment vs after first (6 months) and second (18 months) treatment periods): did not show any reduction in brain calcium content, but perhaps a small increase
- side effects [3]: no side effects from the medication, except for transient elevations in serum phosphate
